From a melting point compilation (Tetko et al.; mined from patent text by program, amines drawn as free bases though some values may be those of a salt)

SMILES | melting point
CCCCCS(=O)c1cccc(-c2nc(=O)c3ccccc3s2)n1 (stereo not given) | 146 to 147 °C
CCC(C)N(C)C(=O)c1cc(-c2ccccc2)c2sccc2c1 (stereo not given) | 105 °C
COc1ccc(-c2nc3ccccc3o2)cc1 | 99.5 to 102 °C
CC(=NNc1ccccc1)c1c(-c2ccccc2)noc1C | 129 to 133 °C
COC(=O)c1ccc(C(=O)c2ccc3c(c2)C2(C)C4(C)CCC(C4)C2(C)O3)cc1 (stereo not given) | 150 °C
N#Cc1ccc2c(c1)C(=O)c1ccccc1CC2 | 104 to 106 °C
CC(C)CCn1cc(C(=O)Nc2nccs2)c2ccc(Cl)cc21 | 179 to 180 °C
CC1=CC(c2ccccc2[N+](=O)[O-])C=C(CN2C(=O)c3ccccc3C2=O)N1 (stereo not given) | 137 to 138 °C
C#CCn1c(=O)sc2cc(F)c(-c3ccc(C(F)(F)F)n(C)c3=O)cc21 | 150 to 151 °C
CCN1C(=O)C(C)(C)C(=O)N(C)c2cc(CN(CCn3cc(C)c4occc4c3=O)Cc3cccnc3COC)ccc21 | 104 to 111 °C
CC(C)(C)c1cc(OCc2cccc(-c3nnn[nH]3)c2)cc(C(C)(C)C)c1O | 163 to 164 °C
COC(=O)c1ccccc1-n1c(CCl)nc2ccc(C(F)(F)F)cc2c1=O | 169 to 170 °C
CNS(=O)(=O)N1C[C@H](SC(c2ccccc2)(c2ccccc2)c2ccccc2)C[C@H]1COCc1ccccc1 | 140 to 142 °C
O=C1CCNc2c1cc(Cl)cc2[N+](=O)[O-] | 132 to 135 °C
CC(CCN1CCCCC1)CC(=O)NNC(=O)N1Cc2ccccc2Oc2ccc(Cl)cc21 (stereo not given) | 108 to 111 °C
C=C=CC1(OC(C)=O)CCC2C3CCc4cc(OC)ccc4C3CCC21C (stereo not given) | 89 to 90 °C
CCOC(=O)/C=C/c1cn(-c2ccc(C(F)(F)F)cn2)nc1C | 131 to 132 °C
O=C(Nc1cccc(OC(F)(F)F)c1)Nc1ccccc1CCO | 160 to 161 °C
Nc1nc(O)c2cc(CN(CCF)c3ccc(C(=O)N[C@@H](CCC(=O)O)C(=O)O)cc3)ccc2n1 | > 350 °C
c1cncc(-c2cc(C3CCN(CCc4cccc5ccccc45)CC3)n[nH]2)c1 | 171 to 173 °C
c1ccc(C(CC2=NCCN2)c2ccncc2)cc1 (stereo not given) | 105 to 107 °C
CC1=Nc2ccccc2CC(c2cccs2)N1C (stereo not given) | 106 to 108 °C
Oc1nnc2ccccc2n1 | 204 to 206 °C
NC(=O)c1ccc(-c2n[nH]c3c2Cc2ccccc2-3)cc1 | 290 to 293 °C
O=Cc1ccc2c(c1)COC2=O | 160 °C

SMILES | melting point
COc1ccc2[nH]c(=O)n(S(=O)(=O)c3ccc(Cl)cc3)c(=O)c2c1 | 192 to 194 °C
COc1cccc(C2CC(=O)N(c3ccnc(NC(=O)NCc4ccccn4)c3)C2)c1 (stereo not given) | 189 to 190 °C
C[C@@H]1CC(C)(C)C[C@@]2(C1)[C@@H](C)CC(=O)[C@]2(C)O (relative stereo) | 73 to 74 °C
CC(N)=CC(=O)OCC(C)(C)CN(C)Cc1ccccc1 | 68 to 70 °C
CC(C)=CCn1c(=O)sc2c(=O)[nH]c(N)nc21 | 290 to 292 °C
CCOC(=O)Cc1c(C)[nH]c(C(=O)c2ccccc2)c1C | 126 to 129 °C
CCn1cc(C(=O)O)c(=O)c2cc(F)c(-c3csc(CNC)n3)c(OC)c21 | 164 to 166 °C
Cn1c(=O)c2c(Br)cccc2n2cnc(-c3noc(C4CC4)n3)c12 | 207 °C
O/N=C1\CCCc2c1c1ccccc1n2-c1ccc(O)cc1 | 227 to 229 °C
COc1cc2cc([N+](=O)[O-])c(OCc3ccccc3)cc2oc1=O | 226 to 228 °C
Cc1cccc(C(=O)Nc2cccc(C(F)(F)F)c2)c1NCc1ccncc1 | 94 to 98 °C
CCOC(=O)c1ccc(NC(=O)COC)cc1NC(=O)COC | 90 to 91 °C
CC(=O)Nc1cccc(OCC(O)CNCCOc2ccc(C(N)=O)cc2)c1 (stereo not given) | 164 to 165 °C
Cc1cc(Oc2ccc(C(F)(F)F)cc2[N+](=O)[O-])nn1C(=O)OC(C)(C)C | 68 to 70 °C
CCOCc1nc2c(N)nc3cc(Br)cnc3c2n1CC(C)(C)NC(=O)OC(C)(C)C | 176 to 178 °C
CC(C)CN(CC(C)C)C(=O)c1ccc(F)c([N+](=O)[O-])c1 | 47 °C
Cc1cc(Oc2ncc(C(F)(F)F)cc2Cl)nn1C(=O)Nc1cccc(C(F)(F)F)c1 | 123 to 124 °C
CON=C(C(=O)OC)c1cc(Cl)nc(NC=O)n1 | 165 to 172 °C
O=Cc1cc(O)ccc1-c1cccnc1 | 182 to 184 °C
Ic1ccc(-c2cccnc2)cc1 | 112 to 115 °C
O=C(O)Cn1c(-c2cc(Br)co2)nc2cccnc21 | 229 to 231 °C
CC(C)[C@@H]1N(C(=O)OCc2ccccc2)CO[C@]1(O)C(F)(F)F | 73 to 74 °C
O=C1C2=CSCCN2C(=O)N1c1ccc(Cl)cc1F | 118 to 120 °C
O=C1Cc2c(-c3ccccc3)ccc(Cl)c2N1 | 234 to 236 °C
COC(=O)c1cc(-c2nccs2)cc2c1OC(c1ccccc1)(c1ccccc1)O2 | 154 to 155 °C

SMILES | melting point
COC(=O)CN(C)C(=O)CC(Cc1cccc2ccccc12)C(=O)NC(Cc1c[nH]cn1)C(=O)NC(CC(C)C)C(O)C(=O)OC (mixture of isomers) | 75 to 79 °C
CNC(=O)c1cc(N2CCCC2)cc(C)c1C(N)=O | 160 °C
CCCCCCCCCC(=O)Oc1ccc2c(N3CCN(CCCC(=O)c4ccc(F)cc4)CC3)noc2c1 | 69 to 71 °C
CC(C)(C)OC(=O)NCCc1ccc(CC(=O)O)cc1 | 94 to 95 °C
COC(=O)C[C@H](O)C[C@H](O)C=Cc1c(-c2ccc(F)cc2)c(-c2ccccc2)c(C(=O)Nc2cccc(S(N)(=O)=O)c2)n1C(C)C | 85 to 87 °C
CNS(=O)(=O)c1cc(C(=O)NNC(=O)c2occ(-c3ccccc3)c2-c2ccccc2)ccc1OC | 239 to 241 °C
O=S1(=O)CCN(c2nc3c(-c4nc(C5CC5)no4)ncn3c3ccccc23)CC1 | 328 to 335 °C
O=C(O)/C=C/c1ccc2c(/C=C/C(=O)O)c[nH]c2c1 | > 360 °C
COc1cc(Nc2ncc(N)c(-c3ccccc3)n2)cc(OC)c1OC | 149 to 150 °C
CCn1c(=O)c(-c2cc(OC)cc(OC)c2)cc2cnc(S(C)=O)nc21 (stereo not given) | 114 to 116 °C
CCOC(=O)C1(C(=O)O)CN(C2CC2)c2nc3cc(N4CC(N)C4C)c(F)cc3cc2C1=O (stereo not given) | 170 °C
CN(C)C=CC(=O)c1cncnc1 | 133 to 135 °C
COCc1nc2c(N)nc3cc(CCC(=O)N4CCS(=O)(=O)CC4)ccc3c2n1CC(C)(C)O | 190 to 192 °C
OC1(c2ccc3c(c2)OCO3)CCNCC1 | 135 to 138 °C
O=C1CCCc2[nH]c3ccc(F)cc3c21 | 255 to 260 °C
COc1cccc2c(Nc3ccc(C(=O)NC4CCN(Cc5ccccc5)CC4)cc3)c(C(N)=O)cnc12 | 154 to 162 °C
O=C1Nc2cc(-c3ccc(C(F)(F)F)cc3)ccc2C1c1cc(Cl)ccc1O (stereo not given) | 221 to 225 °C
CC1(C)C=C(c2ccccn2)c2cc(Cl)ccc2OC1 | 100 °C
CC1CCc2ncc(C(N)=O)c(=O)n21 (stereo not given) | 191 °C
COCCCN1C(=O)CS(=Cc2ccccc2Cl)C1=O (stereo not given) | 83 °C
Nc1ccc(CN2CCN(c3ccc(F)cc3)CC2)cc1 | 130 to 132 °C
CCc1cc(C(=O)O)c(OC(C)=O)cc1C | 132 to 134 °C
Clc1ccc(Cn2cc(CCN=c3sc4ccccc4s3)c3ccccc32)cc1 | 120 to 121 °C
Cc1coc(-c2ccccc2)c(-c2ccc(Cl)c(Cl)c2)c1=O | 104 °C
CCC#CCOc1cc2c(cc1/C=C/C=C/C(C)=C/C(=O)O)C(C)(C)CCC2(C)C | 208 to 209 °C

SMILES | melting point
CCOc1cccc(-c2ccnc(Nc3cccc(OC(F)(F)C(F)F)c3)n2)c1 | 88 to 96 °C
CNc1cc2c(Nc3ccc(Sc4nccn4C)c(Cl)c3)c(C#N)cnc2cc1N1CCC(N2CCCC2)CC1 | 242 to 250 °C
CC#Cc1ccc(NC(=O)c2ccccc2NCc2ccc(=O)[nH]c2)cc1C(F)(F)F | 208 to 212 °C
CN1CCN(CC(=O)N2CC=C(c3cccc(C(F)(F)F)c3)n3ncc(C#N)c32)CC1 | 178 to 180 °C
CCOC(=O)C1=C(NC(=O)Nc2ccc([N+](=O)[O-])c(C(=O)OCC)c2)CCC1 | 152 to 155 °C
Cc1ccc(-c2c(NS(=O)(=O)c3ccc(C(C)(C)C)cc3)ncnc2OCCOc2ncc(CCc3ccccc3)cn2)cc1 | 158 to 160 °C
O=C(O)c1ccccc1S(=O)c1cc(Cl)ccc1C(=O)O (stereo not given) | 279 to 281 °C
CCOC(=O)CC(NC(=O)c1ccc(C)cc1)C(=O)c1ccco1 (stereo not given) | 83.5 to 84.5 °C
Nc1ccc(CC(=O)Nc2ccc(Nc3ccccc3)cc2)cc1 | 162 to 163 °C
CCOC(=O)c1sc(N2CCNC2=O)nc1C | 197 to 199 °C
CN1CN(c2ccccc2)C2(CCN(CCCn3c(=O)[nH]c4ccccc43)CC2)C1=O | 186 °C
COC(=O)Cc1ccc(O)c(NC(=O)C(C)(C)C)c1 | 112 to 113 °C
O=C(N1CC([N+](=O)[O-])([N+](=O)[O-])C1)C(F)(F)F | 70 to 71 °C
Oc1cc2c3cc(O)c(O)cc3n(Cc3cccnc3)c2cc1O | 290 to 294 °C
O=C(COc1ccc(CCNCC(O)COc2ccccc2)cc1)NO (stereo not given) | 126 to 128 °C
CC(=O)NC[C@H]1CN2C(=O)C[C@@H]2O1 | 82.5 to 84.5 °C
CCOC(=O)Nc1cc(OC(=O)OC)c(Cl)cc1F | 144 to 147 °C
O=C(c1cccc([N+](=O)[O-])c1)n1c2cc(O)c(O)cc2c2ccc(O)c(O)c21 | 275 to 279 °C
CNCCCCCCCCCCCO | 58 °C
NS(=O)(=O)c1ccc(-n2nccc2-c2ccc(Cl)cc2)cc1 | 185 to 187 °C
CCN(CC)c1ccc(C2(N(c3ccccc3)c3ccccc3)OC(=O)c3nccnc32)cc1 (stereo not given) | 140 to 143 °C
CCOC(=O)C1=C(N)NC(N)=C(C(=O)OCC)C1c1ccccc1N=[N+]=[N-] | 250 °C
O=C(NCSc1ncnc2nc[nH]c12)c1ccccc1 | 197 to 200 °C
COc1cc(CN/C=C2\C(=O)NC(=O)c3ccc(-c4ccc(Cl)cc4)cc32)cc(O)c1OC | 240 to 241 °C
CCCN1CCNC1=C[N+](=O)[O-] | 147 to 148 °C
